Experimental data: PubChem BioAssay (NCI)
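Where inhibition never reached the appropriate level, the endpoint shown equals the highest concentration tested. Otherwise, values were interpolated linearly from a five-concentration, 48-hour dose response in 96-well plates. GI50 marks 50% less growth. TGI marks complete inhibition of growth.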

Experiments:
Assay in all cases: growth of human tumour cells (NCI), 48 h
SF-268 CNS = test system: SF-268 CNS
HOP-92 NSCLC = test system: HOP-92 NSCLC
SK-OV-3 ovarian = test system: SK-OV-3 ovarian
K-562 leukemia = test system: K-562 leukemia
NCI-H226 lung = test system: NCI-H226 lung
A549 NSCLC = test system: A549 NSCLC
786-0 renal = test system: 786-0 renal
UACC-257 melanoma = test system: UACC-257 melanoma
TK-10 renal = test system: TK-10 renal
NCI/ADR-RES ovarian = test system: NCI/ADR-RES ovarian

| SMILES | GI50 (SF-268 CNS) [µM] | GI50 (HOP-92 NSCLC) [µM] | TGI (HOP-92 NSCLC) [µM] | GI50 (SK-OV-3 ovarian) [µM] | TGI (SK-OV-3 ovarian) [µM] | GI50 (K-562 leukemia) [µM] | TGI (K-562 leukemia) [µM] | GI50 (NCI-H226 lung) [µM] | TGI (NCI-H226 lung) [µM] | GI50 (A549 NSCLC) [µM] | TGI (A549 NSCLC) [µM] | GI50 (786-0 renal) [µM] | TGI (786-0 renal) [µM] | TGI (UACC-257 melanoma) [µM] | TGI (SF-268 CNS) [µM] | TGI (TK-10 renal) [µM] | TGI (NCI/ADR-RES ovarian) [µM] | GI50 (UACC-257 melanoma) [µM] | GI50 (TK-10 renal) [µM] | GI50 (NCI/ADR-RES ovarian) [µM] |
| --- | --- | --- | --- | --- | --- | --- | --- | --- | --- | --- | --- | --- | --- | --- | --- | --- | --- | --- | --- | --- |
| CC(=O)[O][Hg][c]1s[c]([Hg][O]C(C)=O)[c]([Hg][O]C(C)=O)[c]1[Hg][O]C(C)=O | 5.92 | 2.92 | 5.88 | 2.34 | 9.2 | 1.3 | 18.8 | > 100 | > 100 | 55.8 | > 100 | 2.48 | 41.8 |  |  |  |  |  |  |  |
| Cc1ccc(C)c(NC(=O)C(=O)Nn2c(=S)[nH]c3ccccc3c2=O)c1 |  |  | > 100 |  | > 100 |  | > 100 |  | > 100 |  | > 100 |  | > 100 | > 100 | > 100 | > 100 |  |  |  |  |
| O/N=C1\C(=C\c2ccc3c(c2)OCCO3)CCCC1C(NO)c1ccc2c(c1)OCCO2 (configuration not stated) |  |  | 93.4 |  | > 100 |  |  |  |  |  | > 100 |  | > 100 | 49.2 | 32 | 50.7 |  |  |  |  |
| CC1OC(=O)N2CCC=CC12 (configuration not stated) |  |  |  |  | > 100 |  | > 100 |  | > 100 |  | > 100 |  | > 100 | > 100 | > 100 | > 100 |  |  |  |  |
| Nc1ccn(C2CC3OCC3O2)c(=O)n1 (configuration not stated) |  |  |  |  | > 100 |  | > 100 |  | > 100 |  | > 100 |  | > 100 | > 100 | > 100 | > 100 | > 100 |  |  |  |
| COc1cc([C@@H]2c3cc4c(cc3[C@@H](NCc3cccc(F)c3)C3COC(=O)[C@@H]32)OCO4)cc(OC)c1O (some centres not stated) |  |  | > 65 |  | 35.3 |  | 28.9 |  | 6.55 |  | 10.9 |  | 10.2 | 39.6 | > 65 | 40.9 |  |  |  |  |
| Cc1nc(-n2nc(-c3ccccc3)cc2-c2ccccc2)sc1C(=O)/C=C/c1cccc([N+](=O)[O-])c1 |  |  | 51.1 |  | > 100 |  | 28.3 |  |  |  | 55.6 |  | 25.3 | 66.1 | 31.2 | 92.3 |  |  |  |  |
| CCOc1ccccc1NC(=O)C1=C(C)NC(C)=C(C(=O)Nc2ccccc2OCC)C1c1cccc([N+](=O)[O-])c1 |  |  | 41.3 |  | > 100 |  | > 100 |  | > 100 |  | > 100 |  | > 100 | > 100 | > 100 | > 100 |  |  |  |  |
| CCCC(=O)OC(OC(=O)CCC)c1ccc([N+](=O)[O-])o1 |  |  | 56.3 |  | > 100 |  | > 100 |  |  |  | > 100 |  | 36.5 | 51.9 | > 100 | 53.5 | > 100 |  |  |  |
| O=C(N/C(=C\c1ccc(F)cc1)c1nc2ccccc2[nH]1)c1ccccc1 |  |  | > 100 |  | > 100 |  | > 100 |  | > 100 |  | > 100 |  | > 100 | > 100 | > 100 | > 100 |  |  |  |  |
| Cc1ccc([N+]2=NC(c3ccccc3)=NN(c3ccccc3)C2)cc1 |  |  |  |  |  |  | > 100 |  | > 100 |  | > 100 |  | > 100 | > 100 | > 100 | > 100 |  |  |  |  |
| CN1C/C(=C\c2ccc(C(=O)O)cc2)C(=O)/C(=C/c2ccc(C(=O)O)cc2)C1 |  |  | > 100 |  | > 100 |  | > 100 |  | > 100 |  | > 100 |  | > 100 | > 100 | > 100 | > 100 |  |  |  |  |
| COC(=O)C(C)Oc1ccc(O)cc1 (configuration not stated) |  |  | > 100 |  | > 100 |  | > 100 |  | > 100 |  | > 100 |  | > 100 | > 100 | 44.5 | > 100 |  |  |  |  |
| COc1ccc2c(c1)C=CC1C2CC[C@]2(C)C(NC(=O)/C=C/c3ccc(O)c(O)c3)CCC12 (some centres not stated) | 17.2 | 10.6 | 26.5 |  |  | 13.9 | 49.6 | 15.3 | 41.3 | 11.4 | 29.5 | 2.9 | 15.7 | 42.7 | 33 | 10.3 | 33.5 | 20.8 | 2.82 | 11.8 |
| COC(=O)[C@@H](C)C[C@H](Cc1ccccc1)NC(=O)c1csc([C@@H](C[C@H](C(C)C)N(C)C(=O)[C@@H](NC(=O)[C@H]2CCCCN2C)C(C(F)(F)F)C(F)(F)F)OC(C)=O)n1 | 0.108 | 0.0185 | 1.04 | 0.07 | > 16.7 | 0.0124 | > 16.7 | 3.94 | > 16.7 | 0.114 | > 16.7 | 0.0535 | 3.53 |  | > 16.7 | > 16.7 | > 16.7 |  | 4.6 | 0.346 |
| COC(=O)C(/C(=N\O)C(=O)Nc1ccc(Br)cc1)c1nc2ccccc2[nH]c1=O (configuration not stated) |  |  | 97.6 |  | > 100 |  | 67 |  | 71.9 |  | > 100 |  | 90.8 | > 100 | > 100 |  |  |  |  |  |
| CN(C)Cc1cc(C(C)(C)C)cc(CN(C)C)c1O |  |  | > 100 |  | > 100 |  | > 100 |  |  |  | > 100 |  | > 100 | > 100 | > 100 | > 100 | > 100 |  |  |  |
| CC(CC(=O)Nc1ccc(NC(=O)CC(C)N=NC(N)=O)cc1)N=NC(N)=O (configuration not stated) |  |  | > 100 |  | > 100 |  | > 100 |  | > 100 |  | > 100 |  | > 100 | > 100 | > 100 | > 100 |  |  |  |  |
| C#C[C@@H](CCCC)OC(=O)N[C@H](C)c1ccccc1 |  |  |  |  | > 100 |  | > 100 |  | 82 |  | > 100 |  | > 100 | > 100 |  | > 100 |  |  |  |  |
| Cc1c(Cl)cccc1NC(=O)C(=O)c1c(O)c2ccc(O)cc2oc1=O |  |  | > 100 |  | > 100 |  | > 100 |  | > 100 |  | > 100 |  | > 100 | > 100 | > 100 | > 100 |  |  |  |  |
| COC1CC(n2cc(F)c(N)nc2=O)OC1CO (configuration not stated) |  |  | > 100 |  | > 100 |  | > 100 |  | > 100 |  | > 100 |  | > 100 | > 100 | > 100 | > 100 |  |  |  |  |
